Values of other authors as cited in patent US20020155136A1, “MEDICINE CONTAINING YOHIMBINE AND ARGININE FOR TREATING ERECTILE DYSFUNCTION” (priority 1997, published 2002).

Assays:
erectile dysfunction = conditions: 2800 mg per day; Zorgniotti and Lizza 1994
[1] = system: impotence of psychogenic origin

SMILES	favourable effect on erectile dysfunction, proportion of cases (erectile dysfunction)	side effects observed ([1]; for relatively large doses, The Medical Letter 1995)	improvements, proportion of cases ([1]; impotence of psychogenic origin, published studies, results controversial)
N=C(N)NCCC[C@H](N)C(=O)O [L-arginine]	approximately 40 % of cases		
COC(=O)[C@@H]1[C@H]2C[C@H]3c4[nH]c5ccccc5c4CCN3C[C@@H]2CC[C@@H]1O [yohimbine]		vertigo, anxiety, nervousness, headaches, insomnia and an increase in arterial pressure	35 to 45 % of cases
